# Measured values reported in patent publication US9562035B2, “Benzamide derivative useful as FASN inhibitors for the treatment of cancer” (Janssen Pharmaceutica NV, priority 2013, dated 2017).
# Legend:
# [1] = target: T1, hFASN enzyme (full length) (Homo sapiens, UniProt P49327); test: Fatty Acid Synthase (FASN) Inhibition Scintillation Proximity Assay; type: biochemical; conditions: for IC50: mean where tested more than once, ~ = standard error of pIC50 larger than 0.5; for inhibition at 10 µM: read-out: FASN % Effect @1E−05M
# T1 construct: 10 μL hFASN enzyme (full length, 300 ng, purified in house); made in house
# T1 sequence (P49327 whole entry): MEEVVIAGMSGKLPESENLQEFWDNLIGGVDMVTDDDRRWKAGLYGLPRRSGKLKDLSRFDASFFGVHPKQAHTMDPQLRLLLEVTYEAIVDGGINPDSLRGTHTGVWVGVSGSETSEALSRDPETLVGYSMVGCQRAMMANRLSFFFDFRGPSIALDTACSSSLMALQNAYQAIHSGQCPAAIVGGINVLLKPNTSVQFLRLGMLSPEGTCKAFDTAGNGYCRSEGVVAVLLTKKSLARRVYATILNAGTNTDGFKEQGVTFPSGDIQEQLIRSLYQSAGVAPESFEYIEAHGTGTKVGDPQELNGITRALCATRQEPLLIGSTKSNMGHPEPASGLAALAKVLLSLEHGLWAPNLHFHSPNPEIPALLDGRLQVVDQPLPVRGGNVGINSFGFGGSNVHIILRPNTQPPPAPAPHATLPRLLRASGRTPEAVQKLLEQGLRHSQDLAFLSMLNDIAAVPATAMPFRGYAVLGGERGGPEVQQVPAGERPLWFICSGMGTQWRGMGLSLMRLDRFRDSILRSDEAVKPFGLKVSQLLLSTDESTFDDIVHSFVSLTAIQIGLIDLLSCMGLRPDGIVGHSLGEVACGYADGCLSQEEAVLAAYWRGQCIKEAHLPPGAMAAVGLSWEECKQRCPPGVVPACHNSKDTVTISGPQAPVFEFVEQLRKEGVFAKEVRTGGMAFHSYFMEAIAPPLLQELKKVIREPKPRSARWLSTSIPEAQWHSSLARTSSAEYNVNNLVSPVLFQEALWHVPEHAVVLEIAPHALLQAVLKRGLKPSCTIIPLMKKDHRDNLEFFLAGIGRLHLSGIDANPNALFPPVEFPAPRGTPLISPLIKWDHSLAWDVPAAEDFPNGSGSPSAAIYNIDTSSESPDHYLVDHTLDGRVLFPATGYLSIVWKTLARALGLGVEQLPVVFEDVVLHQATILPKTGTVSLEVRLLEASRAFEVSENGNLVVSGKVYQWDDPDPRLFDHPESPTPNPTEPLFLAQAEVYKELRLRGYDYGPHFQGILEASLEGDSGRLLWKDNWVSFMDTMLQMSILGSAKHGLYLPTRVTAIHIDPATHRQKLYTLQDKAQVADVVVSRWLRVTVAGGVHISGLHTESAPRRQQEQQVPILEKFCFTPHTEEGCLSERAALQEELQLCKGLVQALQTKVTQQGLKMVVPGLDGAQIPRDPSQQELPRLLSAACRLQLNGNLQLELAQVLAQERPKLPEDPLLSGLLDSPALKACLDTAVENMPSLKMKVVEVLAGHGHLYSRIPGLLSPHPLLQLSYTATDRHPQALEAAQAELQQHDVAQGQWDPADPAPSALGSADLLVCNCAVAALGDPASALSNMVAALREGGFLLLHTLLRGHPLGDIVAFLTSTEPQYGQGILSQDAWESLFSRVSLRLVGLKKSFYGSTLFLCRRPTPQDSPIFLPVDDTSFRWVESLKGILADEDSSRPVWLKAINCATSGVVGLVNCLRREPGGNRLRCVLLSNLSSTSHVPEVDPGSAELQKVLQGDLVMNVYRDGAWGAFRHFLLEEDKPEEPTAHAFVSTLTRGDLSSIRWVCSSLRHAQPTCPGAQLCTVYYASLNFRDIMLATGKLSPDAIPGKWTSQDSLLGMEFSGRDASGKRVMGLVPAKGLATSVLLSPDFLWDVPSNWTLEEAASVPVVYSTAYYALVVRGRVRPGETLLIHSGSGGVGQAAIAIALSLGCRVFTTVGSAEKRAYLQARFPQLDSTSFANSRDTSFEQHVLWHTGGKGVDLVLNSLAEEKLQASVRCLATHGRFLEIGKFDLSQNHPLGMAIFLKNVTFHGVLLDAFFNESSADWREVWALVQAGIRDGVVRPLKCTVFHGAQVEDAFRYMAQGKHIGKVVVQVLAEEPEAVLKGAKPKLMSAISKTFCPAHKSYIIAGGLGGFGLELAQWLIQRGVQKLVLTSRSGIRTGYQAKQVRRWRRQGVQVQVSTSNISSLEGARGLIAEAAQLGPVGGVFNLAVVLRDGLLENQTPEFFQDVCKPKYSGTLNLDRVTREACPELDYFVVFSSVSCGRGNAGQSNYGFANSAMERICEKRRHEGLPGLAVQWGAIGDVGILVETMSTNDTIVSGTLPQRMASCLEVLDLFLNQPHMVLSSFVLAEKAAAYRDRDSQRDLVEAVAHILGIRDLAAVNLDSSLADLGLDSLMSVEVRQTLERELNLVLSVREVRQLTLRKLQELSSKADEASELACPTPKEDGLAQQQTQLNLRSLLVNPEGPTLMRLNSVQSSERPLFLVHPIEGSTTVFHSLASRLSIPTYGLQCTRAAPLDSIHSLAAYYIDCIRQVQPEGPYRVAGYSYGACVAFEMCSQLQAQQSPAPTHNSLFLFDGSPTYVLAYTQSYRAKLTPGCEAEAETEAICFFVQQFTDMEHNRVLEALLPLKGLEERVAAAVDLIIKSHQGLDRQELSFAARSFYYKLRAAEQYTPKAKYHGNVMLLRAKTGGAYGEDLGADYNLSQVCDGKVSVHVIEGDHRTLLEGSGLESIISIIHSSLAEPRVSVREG
# Procedure, shortened: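 Purified full-length human FASN (300 ng) incubated 60 min at room temperature with NADPH, [3H]-acetyl-CoA and malonyl-CoA in 100 mM KH2PO4 pH 7.5, 1 mM DTT; compound at 30 μM to 0.01 μM. [3H]-palmitate captured by SPA imaging beads; IC50 from 4-parameter fit, reported as pIC50.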
# [2] = target: T2, FASN Keto-reductase Domain (Homo sapiens, UniProt P49327); test: Fatty Acid Synthase Keto-Reductase Domain (FASN KR) Inhibition; type: biochemical; conditions: mean where tested more than once; read-out: FASN K-R Domain pIC50 (converted)
# T2 construct: 10 μL hFASN enzyme (full length, 300 ng, purified in house) and 360 μM NADPH; made in house
# T2 sequence (P49327 whole entry, the tested form may be a part): as the sequence (P49327 whole entry) above
# Procedure, shortened: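 Full-length human FASN (300 ng) in 100 mM KH2PO4 pH 7.5 with 360 μM NADPH and 180 mM ethyl acetoacetate (stock); A340 decrease read over 20 min at room temperature.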
# [3] = test system: A2780 ovarian cells; test: A2780 Ovarian Cell Proliferation Assay in Lipid Reduced Medium, without Palmitate; type: cell-based; conditions: Homo sapiens, A2780; lipid reduced medium, without palmitate, 96 h, MTT; read-out: Proliferation A2780 w/o Palmitate pIC50 (converted)
# Procedure, shortened: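 A2780 cells were seeded in 10% FCS medium and switched next day to 10% lipid-reduced serum without palmitate. Compounds at 0.01–30 μM were added with 0.2% DMSO, 0.2% fatty-acid-free BSA and 0.25% ethanol final. After 96 h, MTT absorbance at 544 nm was normalized to plate controls, and IC50/pIC50 came from a 4-parameter logistic fit.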
# [4] = test system: A2780 ovarian cells; test: A2780 Ovarian Cell Proliferation Assay in Lipid Reduced Medium, with Palmitate (control); type: cell-based; conditions: Homo sapiens, A2780; lipid reduced medium, 25 μM palmitate, 96 h, MTT; read-out: Proliferation A2780 with Palmitate pIC50 (converted)
# Procedure, shortened: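 A2780 cells were seeded in RPMI1640 with 10% FCS, then switched next day to medium with 10% lipid-reduced serum. Compound was added with final 25 μM palmitate, 0.2% fatty-acid-free BSA and 0.2% DMSO, and incubated 96 h at 37 °C. Read-out was MTT absorbance at 544 nm; pIC50 = −log(IC50) from curve fit.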
# [5] = test system: LNCaP_Vancouver prostate cells; test: In Vitro LNCaP Vancouver Prostate Cell Proliferation Assay in Lipid Reduced Medium; type: cell-based; conditions: lipid reduced serum, 96 h, read-out: Vancouver Cells pIC50 (converted)
# Method: LNCaP_Vancouver prostate cells were obtained from the Vancouver Prostate Cancer Centre. Cells were maintained in RPMI-1640, 10% Fetal Calf Serum (FCS, Hyclone), 2 mM glutamine and 50 μg/ml Gentamicin.
# For the proliferation experiment 1500 LNCaP_Vancouver cells per well were seeded in a 384-well black with clear bottom plate (costar 3712BC) in 40 μl RPMI-1640, 10% Lipid reduced serum (LRS, Hyclone), 50 μg/ml Gentamicin and 2 mM Glutamine and incubated at 37° C., 5% CO2. The next day 10 μl of test compound/DMSO diluted in medium was added (3E-5M, 1E-5M, 3E-6M, 1E-6M, 3E-7M, 1E-7M, 3E-8M, 1E-8M final concentration). Compounds were tested in duplicate. After 96 h incubation at 37° C., 5% CO2 25 μl ATP-glow mix was added. The plate was incubated for 30 min at 37° C. and luminescence was measured with the Envision.
# (§1) pIC50 values were calculated as follows. Raw data generated by the instruments were normalized to % Controlmin values, which were calculated as: % Controlmin=100*(x−mLC)/(mHC−mLC),
# (§2) where mLC and mHC are the means of the low control wells and high control wells on the plate, after manual exclusion of outliers. The relation between the % Controlmin values and concentration was fitted to a 4-parameter logistic curve using a non-linear least squares regression method to determine the pIC50 value. Outlying data points were excluded manually to get a correct fit. The pIC50 corresponds to −log 10(IC50), if the IC50 is expressed in molar units (http://www.ncbi.nlm.nih.gov/books/NBK91994). The IC50 parameter was always determined by non-linear regression, but one or more of the other parameters may have been held fixed on a relevant input value, such as 0 for the bottom values.
# (§3) For dose response curves with FASN inhibitors in LNCaP_Vancouver or PC-3M-Luc_C6 cells the curves bottom out around 30 to 40% of the control value. A standard fit PL2, forcing the lower bound to this level was used.
# (§4) Representative compounds of the present invention were tested according to the procedure as described in Biological Example 4a and 4b above, with results as listed in Table BIO-4, below.
# [6] = test system: PC-3M-Luc-C6 prostate cells; test: In Vitro PC-3M-Luc-C6 Prostate Cell Proliferation Assay in Lipid Reduced Medium; type: cell-based; conditions: read-out: PC-3M-Luc-C6 Cells pIC50 (μM) (converted), lipid reduced serum, 96 h
# Method: PC-3M-Luc-C6 prostate cells were obtained from Xenogen Corporation. Cells were maintained in MEM supplemented with 10% Fetal Calf Serum (FCS, Hyclone), 2 mM glutamine, 1 mM sodium pyruvate, 1% BME vitamins (available from for example, Sigma Aldrich), 0.1 mM non Essential Amino Acid and 50 μg/ml Gentamicin. The cells were passaged twice a week.
# 1000 PC-3M-Luc-C6 prostate cells (Xenogen) were seeded in a 384-well black with clear bottom plate (costar 3712BC) in 40 μl MEM, 10% LRS (Hyclo ne), 50 μg/ml Gentamicin, 2 mM Glutamine, 1 mM Sodium pyruvaat, 1% BME vitamins and 0.1 mM non Essential Amino Acid and incubated at 37° C., 5% CO2. The next day 10 μl test compound/DMSO diluted in medium was added (3E-5M, 1E-5M, 3E-6M, 1E-6M, 3E-7M, 1E-7M, 3E-8M, 1E-8M final concentration). Compounds were tested in duplicate. After 96 h incubation at 37° C., 5% CO2 25 μl ATP-glow mix was added. The plate was incubated for 30 min at 37° C. and luminescence was measured with the Envision.
# as §1, §2, §3, §4
Structure (SMILES),IC50 [1],inhibition at 10 µM [1],IC50 [2],IC50 [3],IC50 [4],IC50 [5],IC50 [6]
"CC(C)Nc1ccc(C(=O)Nc2cc(C(=O)N3CC(c4ccc(-c5ccc6cnccc6c5)cc4)C3)ccc2Cl)cn1 [Compound #75, N-(2-chloro-5-(3-(4-(isoquinolin-6-yl)phenyl)azetidine-1-carbonyl)phenyl)-6-(isopropylamino)nicotinamide]",0.0537 µM,92%,0.055 µM,0.135 µM,> 15.1 µM,,
"COc1ccc(C(=O)Nc2cc(C(=O)N3CC(c4ccc(-c5cnn(C)c5)cc4)C3)ccc2C)cc1 [Compound #83, 4-methoxy-N-(2-methyl-5-(3-(4-(1-methyl-1H-pyrazol-4-yl)phenyl)azetidine-1-carbonyl)phenyl)benzamide]",0.0162 µM,109%,0.0457 µM,0.0741 µM,> 10 µM,,
"Cc1ccc(C(=O)N2CCC(c3ccc(-c4cnn(C)c4)cc3)CC2)cc1NC(=O)c1ccc(N2CCOCC2)nc1 [Compound #91, N-(2-methyl-5-(4-(4-(1-methyl-1H-pyrazol-4-yl)phenyl)piperidine-1-carbonyl)phenyl)-6-morpholinonicotinamide]",0.0112 µM,109%,0.0251 µM,0.0158 µM,> 10 µM,,
"Cc1ccc(C(=O)N2CCC(c3ccc(-c4cnn(C)c4)cc3)CC2)cc1NC(=O)c1ccc(Cl)cc1 [Compound #100, 4-chloro-N-(2-methyl-5-(4-(4-(1-methyl-1H-pyrazol-4-yl)phenyl)piperidine-1-carbonyl)phenyl)benzamide]",0.0162 µM,111%,0.0447 µM,0.0933 µM,> 10 µM,,
"Cc1ccc(C(=O)N2CCC(c3ccc(-c4cnn(C)c4)cc3)CC2)cc1NC(=O)c1ccc(N2CCN(C)CC2)nc1 [Compound #112, N-(2-Methyl-5-(4-(4-(1-methyl-1H-pyrazol-4-yl)phenyl)piperidine-1-carbonyl)phenyl)-6-(4-methylpiperazin-1-yl)nicotinamide]",0.0115 µM,104%,0.0661 µM,0.0302 µM,2.69 µM,,
"COc1ccc(C(=O)N2CCC(c3ccc(-c4cnn(C)c4)cc3)CC2)cc1NC(=O)c1ccc(NC(C)C)nc1 [Compound #251, 6-(isopropylamino)-N-(2-methoxy-5-(4-(4-(1-methyl-1H-pyrazol-4-yl)phenyl)piperidine-1-carbonyl)phenyl)nicotinamide]",0.0288 µM,112%,0.115 µM,0.0417 µM,2.4 µM,,
"CCc1ccc(C(=O)N2CCC(c3ccc(-c4cnn(C)c4)cc3)CC2)cc1NC(=O)c1ccc(Cl)nc1 [Compound #255, 6-chloro-N-(2-ethyl-5-(4-(4-(1-methyl-1H-pyrazol-4-yl)phenyl)piperidine-1-carbonyl)phenyl)nicotinamide]",0.024 µM,113%,0.0724 µM,0.0398 µM,> 10 µM,,
"CCc1ccc(C(=O)N2CCC(c3ccc(-c4cnn(C)c4)cc3)CC2)cc1NC(=O)c1ccc(NC(C)C)nc1 [Compound #256, N-(2-ethyl-5-(4-(4-(1-methyl-1H-pyrazol-4-yl)phenyl)piperidine-1-carbonyl)phenyl)-6-(isopropylamino)nicotinamide]",0.0257 µM,116%,0.0603 µM,0.00891 µM,6.31 µM,,

# More lines, now with the values ahead:
IC50 [1],inhibition at 10 µM [1],IC50 [2],IC50 [3],IC50 [4],IC50 [5],IC50 [6],Structure (SMILES)
0.0204 µM,103%,0.0661 µM,0.151 µM,> 10 µM,,,"Cc1ccc(C(=O)N2CCC(c3ccc(-c4cnn(C)c4)cc3)CC2)cc1NC(=O)C1CC1 [Compound #89, N-(2-methyl-5-(4-(4-(1-methyl-1H-pyrazol-4-yl)phenyl)piperidine-1-carbonyl)phenyl)cyclopropanecarboxamide]"
0.0275 µM,111%,0.112 µM,0.0457 µM,> 10 µM,,,"Cc1ccc(C(=O)N2CCC(c3ccc(-c4cnn(C)c4)cc3)CC2)cc1NC(=O)C1CCN(C(C)C)CC1 [Compound #182, 1-isopropyl-N-(2-methyl-5-(4-(4-(1-methyl-1H-pyrazol-4-yl)phenyl)piperidine-1-carbonyl)phenyl)piperidine-4-carboxamide]"
,98%,,0.182 µM,> 10 µM,2.19 µM,0.269 µM,"CN(C)c1ccc(C(=O)N2CCC(c3ccc(-c4cnn(C)c4)cc3)CC2)cc1NC(=O)C1CC1 [Compound #273, N-(2-(dimethylamino)-5-(4-(4-(1-methyl-1H-pyrazol-4-yl)phenyl)piperidine-1-carbonyl)phenyl)cyclopropanecarboxamide]"
